Results on two compounds are retold here after BindingDB's records for patent US10759792 (The Johns Hopkins University, 2020).

This test concerns the target Calcium/calmodulin-dependent protein kinase type II subunit delta (Homo sapiens, UniProt Q13557). The test can be described thus: Inhibition Assay. How it is done:
Compounds were added in 5 uL volume to wells in UV transparent 96-well plates ( area well size). The final compound concentrations tested ranged from 0.5 nM to 10 uM). Assays were performed in duplicate. CaMKIIδ is added to at a final concentration of 16 nM to a mixture containing 100 mM Tris (pH 7.5), 150 mM KCl, 0.27 mM EGTA, 1.3 mM PEP, 0.2 mg/ml AC3, 6.9% (v/v) PK/LDH mixture (Sigma P0294), 0.38 mM NADH and kept on ice. 72 uL of the enzyme mixture was added to the wells containing compounds and the plate was shaken briefly and kept on ice. The assay was initiated by adding 23 uL of a mixture containing 100 mM Tris (pH 7.5), 150 mM KCl, 1.7 mM CaCl2, 48 mM MgCl2, 0.35 mM ATP and 6.7 ug/mL calmodulin. The rate of ADP released was measured as the rate of absorbance decrease at […] at 25° C.

Sequence of Calcium/calmodulin-dependent protein kinase type II subunit delta (Q13557 whole entry): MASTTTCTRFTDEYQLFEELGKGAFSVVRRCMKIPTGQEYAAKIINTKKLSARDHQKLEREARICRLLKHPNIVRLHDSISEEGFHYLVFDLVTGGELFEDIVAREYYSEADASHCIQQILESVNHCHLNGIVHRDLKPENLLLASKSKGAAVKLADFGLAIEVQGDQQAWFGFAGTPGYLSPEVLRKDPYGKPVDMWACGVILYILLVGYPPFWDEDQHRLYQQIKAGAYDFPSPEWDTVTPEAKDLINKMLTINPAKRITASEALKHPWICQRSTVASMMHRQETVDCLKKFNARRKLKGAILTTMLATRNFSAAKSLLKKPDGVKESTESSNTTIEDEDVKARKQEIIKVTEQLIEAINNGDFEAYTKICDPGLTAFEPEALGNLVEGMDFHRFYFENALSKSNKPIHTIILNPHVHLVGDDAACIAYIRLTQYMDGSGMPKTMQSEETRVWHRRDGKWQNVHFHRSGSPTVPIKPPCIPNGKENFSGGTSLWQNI

Consider `Cc1ccc2c(c1)[nH]c1nccc(-c3cccc(NCCN)c3)c12` [US10759792, Compound I-11], for which the IC50 (commonly the concentration that inhibits the measured activity by half) is less than 50 nM.
For `NCCCNc1cccc(-c2ccnc3[nH]c4ccccc4c23)c1` [US10759792, Compound I-8], the IC50 is less than 50 nM.
